Results reported in the NIST ThermoML archive (doi:10.1016/j.jct.2005.10.002).
± gives the expanded uncertainty stated by the source.

Conditions: Liquid

CCC(O)(CC)CC [3-ethyl-3-pentanol]
speed of sound [m/s]
Conditions	303.15 K	313.15 K	323.15 K	333.15 K	343.15 K	353.15 K	363.15 K	373.15 K
100 kPa	1269.7 ± 4	1229.3 ± 3.9	1189.8 ± 3.8	1152.4 ± 3.8	1113 ± 3.7	1073.7 ± 3.6	1034.6 ± 3.5	994.7 ± 3.4
10000 kPa	1326.5 ± 4.1	1289.3 ± 4	1255.2 ± 4	1217.3 ± 3.9	1180.3 ± 3.8	1144 ± 3.7	1107.3 ± 3.7	1072 ± 3.6
20000 kPa	1379.5 ± 4.2	1346 ± 4.2	1311.9 ± 4.1	1277.4 ± 4	1241.1 ± 3.9	1207.5 ± 3.9	1172.7 ± 3.8	1139.6 ± 3.7
30000 kPa	1429.1 ± 4.3	1393.8 ± 4.3	1364.3 ± 4.2	1330.3 ± 4.1	1297.2 ± 4.1	1264.4 ± 4	1232.5 ± 3.9	1200.6 ± 3.9
40000 kPa	1474.3 ± 4.4	1440.8 ± 4.4	1412.8 ± 4.3	1379.9 ± 4.2	1349.5 ± 4.2	1317.4 ± 4.1	1286.4 ± 4	1256.3 ± 4
50000 kPa	1515.9 ± 4.5	1484.5 ± 4.5	1459 ± 4.4	1426.5 ± 4.3	1396 ± 4.3	1366 ± 4.2	1336.4 ± 4.1	1307.4 ± 4.1
60000 kPa	1556.7 ± 4.6	1526 ± 4.6	1500.7 ± 4.5	1470.6 ± 4.4	1441.1 ± 4.4	1411.1 ± 4.3	1383.4 ± 4.2	1354.2 ± 4.2
70000 kPa	1594.7 ± 4.7	1564.6 ± 4.6	1541 ± 4.6	1511 ± 4.5	1482.7 ± 4.5	1454.8 ± 4.4	1427.4 ± 4.3	1400 ± 4.3
80000 kPa	1632.3 ± 4.8	1602.2 ± 4.7	1580.4 ± 4.7	1550.1 ± 4.6	1522 ± 4.5	1494.6 ± 4.5	1467.9 ± 4.4	1440.9 ± 4.4
90000 kPa	1667.3 ± 4.9	1638.3 ± 4.8	1616.9 ± 4.8	1587.4 ± 4.7	1560.4 ± 4.6	1533.6 ± 4.6	1507.1 ± 4.5	1481.4 ± 4.5
100000 kPa	1700.2 ± 4.9	1672.4 ± 4.9	1651.3 ± 4.8	1622.8 ± 4.8	1596.4 ± 4.7	1570.4 ± 4.7	1544.3 ± 4.6	1519.4 ± 4.5
